Source: ChEMBL document CHEMBL1201862, “PubChem BioAssay data set” (2004)
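Test compounds were applied to cells in 96-well plates for 48 hours at 5 doses. At the GI50, growth is halved.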 Activity calls are given as the source filed them. Cut-off read from the data, not from the text of the source: active = GI50 up to about 1.1 µM and inactive = higher.

Assays:
Assay in all cases: inhibition of tumour cell growth, NCI panel, 48 h
ACHN = tested on: ACHN
SNB-78 = tested on: SNB-78
MDA-MB-231 = tested on: MDA-MB-231
M19-MEL = tested on: M19-MEL
MOLT-4 = tested on: MOLT-4
OVCAR-3 = tested on: OVCAR-3
NCI-H226 = tested on: NCI-H226
HCT-15 = tested on: HCT-15
UO-31 = tested on: UO-31
SR = tested on: SR
OVCAR-8 = tested on: OVCAR-8
786-0 = tested on: 786-0
HOP-62 = tested on: HOP-62
NCI/ADR-RES = tested on: NCI/ADR-RES
HL-60 = tested on: HL-60
KM12 = tested on: KM12
NCI-H460 = tested on: NCI-H460
K562 = tested on: K562
MDA-N = tested on: MDA-N
SK-MEL-2 = tested on: SK-MEL-2

For `CC(O)C(NC(=O)C(CS)NC(=O)C(CO)NC(=O)C(CCCCN)NC(=O)C(Cc1c[nH]c2ccccc12)NC(=O)C(Cc1ccc(O)cc1)NC(=O)C(CS)NC(=O)C(N)Cc1ccccc1)C(N)=O` (stereo not given), which GI50 (ACHN) is on record?
Its GI50 is > 25 µM (inactive).

What about the GI50 (SNB-78) of the same compound?
The GI50 was 31.3 µM (inactive).

And the GI50 (MDA-MB-231)?
The GI50 was > 25 µM (inactive).

And the GI50 (M19-MEL)?
Its GI50 is 26 µM (inactive).

And the GI50 (MOLT-4)?
Its GI50 is > 25 µM (inactive).

What about the GI50 (OVCAR-3) of the same compound?
The GI50 was > 25 µM (inactive).

What about the GI50 (NCI-H226) of the same compound?
The GI50 was > 25 µM (inactive).

What about the GI50 (HCT-15) of the same compound?
Its GI50 is > 25 µM.

What about the GI50 (UO-31) of the same compound?
Its GI50 is > 25 µM (inactive).

And the GI50 (SR)?
The GI50 was > 25 µM (inactive).

What about the GI50 (OVCAR-8) of the same compound?
The GI50 was > 25 µM (inactive).

What about the GI50 (786-0) of the same compound?
The GI50 was > 25 µM (inactive).

And the GI50 (HOP-62)?
Its GI50 is > 25 µM (inactive).

What about the GI50 (NCI/ADR-RES) of the same compound?
The GI50 was > 25 µM (inactive).

And the GI50 (HL-60)?
Its GI50 is > 25 µM (inactive).

What about the GI50 (KM12) of the same compound?
The GI50 was > 25 µM (inactive).

What about the GI50 (NCI-H460) of the same compound?
The GI50 was 22.2 µM (inactive).

And the GI50 (K562)?
Its GI50 is > 25 µM (inactive).

What about the GI50 (MDA-N) of the same compound?
The GI50 was > 25 µM (inactive).

And the GI50 (SK-MEL-2)?
The GI50 was > 25 µM (inactive).
